The values below come from ChEMBL document CHEMBL3994658, “Synthesis, molecular docking and α-glucosidase inhibition of 2-((5,6-diphenyl-1,2,4-triazin-3-yl)thio)-N-arylacetamides” (Bioorg Med Chem Lett, 2017).

The IC50 is the concentration that gives 50% inhibition. A lower IC50 goes with inhibition by little substance.

This experiment in a line: Inhibition of Saccharomyces cerevisiae alpha-glucosidase using p-nitrophenyl-alpha-D-glucopyranoside as substrate preincubated for 15 mins followed by substrate addition measured after 30 mins by spectrophotometric method.
Compound `Cc1cccc(NC(=O)CSc2nnc(-c3ccccc3)c(-c3ccccc3)n2)c1` displayed an IC50 of 42.5 µM.
On to `O=C(CSc1nnc(-c2ccccc2)c(-c2ccccc2)n1)Nc1ccc(Oc2ccccc2)cc1`, for which the IC50 was 25.2 µM.
`O=C(CSc1nnc(-c2ccccc2)c(-c2ccccc2)n1)Nc1ccc(Cl)cc1`: the midpoint of inhibition, the IC50, lay at 14.1 µM.
In turn, `COc1ccc(NC(=O)CSc2nnc(-c3ccccc3)c(-c3ccccc3)n2)c([N+](=O)[O-])c1` came in with an IC50 of 47 µM.
`COc1ccc(NC(=O)CSc2nnc(-c3ccccc3)c(-c3ccccc3)n2)cc1` yielded an IC50 of 49.4 µM.
As for `CCOc1ccc(NC(=O)CSc2nnc(-c3ccccc3)c(-c3ccccc3)n2)cc1`, the figure is 26.3 µM; as for `O=C(CSc1nnc(-c2ccccc2)c(-c2ccccc2)n1)Nc1ccccc1`, 71.1 µM.
`Cc1ccc(NC(=O)CSc2nnc(-c3ccccc3)c(-c3ccccc3)n2)c(C)c1` displayed an IC50 of 67.2 µM.
For the compound `Cc1ccc(NC(=O)CSc2nnc(-c3ccccc3)c(-c3ccccc3)n2)cc1`, inhibition was half-maximal at 52 µM (IC50). This IC50 and that of the compound before are within 1.5-fold of each other.
Compound `CCOc1ccccc1NC(=O)CSc1nnc(-c2ccccc2)c(-c2ccccc2)n1` yielded an IC50 of 16 µM.
Then `Cc1ccccc1NC(=O)CSc1nnc(-c2ccccc2)c(-c2ccccc2)n1`, with 72.7 µM.
`O=C(CSc1nnc(-c2ccccc2)c(-c2ccccc2)n1)Nc1ccc([N+](=O)[O-])cc1` came in with an IC50 of 12.5 µM.
As for `O=C(CSc1nnc(-c2ccccc2)c(-c2ccccc2)n1)Nc1ccc(C(F)(F)F)cc1`, the midpoint of inhibition, the IC50, lay at 34.9 µM.
In the case of `O=C(CSc1nnc(-c2ccccc2)c(-c2ccccc2)n1)Nc1ccc(F)cc1`, the IC50 is 50.6 µM. The IC50 values of the last two compounds are within 1.5-fold of each other.
`O=C(CSc1nnc(-c2ccccc2)c(-c2ccccc2)n1)Nc1cc(Cl)ccc1Cl` returned an IC50 of 28 µM.
Then `O=C(CSc1nnc(-c2ccccc2)c(-c2ccccc2)n1)Nc1ccc(Cl)cc1Cl`, with 36.8 µM; and `Cc1ccc(NC(=O)CSc2nnc(-c3ccccc3)c(-c3ccccc3)n2)c([N+](=O)[O-])c1`, with 45.6 µM.
